Source: publication PMC5367682, “Fragment library screening identifies hits that bind to the non-catalytic surface of Pseudomonas aeruginosa DsbA1” (PLoS ONE, 2017)

Legend:
PaDsbA1 = target: T1, PaDsbA1 (Pseudomonas aeruginosa, UniProt P0C2B2); assay: […]-HSQC NMR titration, CSP fitted to one-site model; assay type: binding
T1 construct: gene dsbA; N-terminal His6 tag cut with TEV; E. coli BL21(DE3) Gold; 15N-labelled for NMR, oxidized; NMR structure residues 3-192

EcDsbA = target: T2, EcDsbA (Escherichia coli, UniProt P0AEG4); assay: […]-HSQC NMR after STD NMR; assay type: binding
T2 construct: gene dsbA; 15N-labelled for HSQC
T2 sequence (P0AEG4 20-208): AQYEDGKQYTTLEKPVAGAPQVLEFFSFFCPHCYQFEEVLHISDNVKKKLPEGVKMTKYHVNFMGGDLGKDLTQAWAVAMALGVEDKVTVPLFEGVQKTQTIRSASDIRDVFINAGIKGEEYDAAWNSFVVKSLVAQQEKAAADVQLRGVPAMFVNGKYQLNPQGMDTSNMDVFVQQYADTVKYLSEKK

T1 sequence (P0C2B2 22-211): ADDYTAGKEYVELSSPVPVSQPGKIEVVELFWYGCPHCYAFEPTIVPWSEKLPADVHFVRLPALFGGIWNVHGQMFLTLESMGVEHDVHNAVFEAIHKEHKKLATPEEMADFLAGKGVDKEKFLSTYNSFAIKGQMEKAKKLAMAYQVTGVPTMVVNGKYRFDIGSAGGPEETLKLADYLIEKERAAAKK

SMILES | Kd (PaDsbA1) [µM] | Kd (EcDsbA) [µM]
Cc1ccccc1CSc1nncn1N [compound 1, Fragment 1] | 900 | –
Cc1cc(C(=O)Nc2cccc(O)c2)c(C)o1 [compound 2, Fragment 2] | 1600 ± 200 | –
Oc1nc2ccccc2s1 [compound 3, Fragment 3] | 2100 ± 300 | –
Nc1ccc(-c2nc3ccccc3[nH]2)cc1 [compound 4, Fragment 4] | 2500 ± 400 | –
NNC(=O)c1cc(C2CC2)n[nH]1 [compound 5, Fragment 5] | 2700 ± 700 | –
COc1ccc(-c2nc(N)sc2C)cc1 [compound 6, Fragment 6] | 3900 ± 200 | > 5000
CNCc1ccc(-c2cccc(Cl)c2)o1 [compound 7, Fragment 7] | 4300 ± 1000 | –
Nc1cccc(C(=O)Nc2ccccc2Cl)c1 [compound 8, Fragment 8] | 4400 ± 5000 | –
